From US20260374773A1, “MULTI-CYCLIC IRAK AND FLT3 INHIBITING COMPOUNDS AND USES THEREOF” (CHILDREN'S HOSPITAL MEDICAL CENTER, priority 2022, published 2026)

Tests used:
Type in all cases: biochemical
Conditions in all cases: isolated kinase, 33P-ATP, 2 h
FLT3 = molecular target: T1, FLT3 (Homo sapiens, UniProt P36888); test: RBC HotSpot kinase inhibition assay, FLT3
T1 sequence (P36888 27-993): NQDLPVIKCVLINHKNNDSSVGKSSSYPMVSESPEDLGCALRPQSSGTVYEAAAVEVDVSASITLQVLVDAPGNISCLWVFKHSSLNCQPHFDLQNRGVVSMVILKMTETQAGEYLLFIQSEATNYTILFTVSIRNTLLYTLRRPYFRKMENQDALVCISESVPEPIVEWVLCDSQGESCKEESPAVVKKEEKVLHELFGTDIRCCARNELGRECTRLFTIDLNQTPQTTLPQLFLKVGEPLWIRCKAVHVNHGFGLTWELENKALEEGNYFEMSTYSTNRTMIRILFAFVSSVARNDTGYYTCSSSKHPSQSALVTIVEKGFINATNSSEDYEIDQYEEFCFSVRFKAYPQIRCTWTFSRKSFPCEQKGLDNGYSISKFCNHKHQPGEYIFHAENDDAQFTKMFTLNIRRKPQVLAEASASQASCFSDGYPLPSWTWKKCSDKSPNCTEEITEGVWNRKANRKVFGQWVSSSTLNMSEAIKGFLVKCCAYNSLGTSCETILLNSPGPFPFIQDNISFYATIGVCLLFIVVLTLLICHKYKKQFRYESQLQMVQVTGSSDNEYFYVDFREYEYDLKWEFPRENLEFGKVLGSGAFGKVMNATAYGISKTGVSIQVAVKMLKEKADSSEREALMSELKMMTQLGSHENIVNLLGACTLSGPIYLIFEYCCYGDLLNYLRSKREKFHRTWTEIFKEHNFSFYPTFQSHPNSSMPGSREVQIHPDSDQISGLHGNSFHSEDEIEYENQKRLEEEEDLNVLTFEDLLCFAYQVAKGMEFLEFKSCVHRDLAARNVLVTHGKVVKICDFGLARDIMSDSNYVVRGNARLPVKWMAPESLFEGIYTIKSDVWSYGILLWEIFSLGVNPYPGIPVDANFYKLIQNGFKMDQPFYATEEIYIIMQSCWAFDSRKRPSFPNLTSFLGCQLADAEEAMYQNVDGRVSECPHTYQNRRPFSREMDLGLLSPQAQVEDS
Source text: (§1) This assay uses the isolated kinase enzyme. This assay is very useful for determining competition of the inhibitor for ATP and/or substrates and for measuring the kinetics of enzyme inhibition. […] Unlike kinase binding assays that measure competition for ATP, the HotSpot Kinase Assay is a functional assay that measures catalytic activity; as such it measures relative functional potency regardless of the mechanism of enzyme inhibition. This assay uses the form of the various enzymes that are easiest to express, which may not necessarily be the form of the enzyme that exist in the cell. (Sometimes the carboxy terminus has been truncated to aid in expression, or, if it is a receptor kinase, the enzyme itself is isolated from the other parts of the receptor that are involved in regulating kinase activity.)
(§2) The reagent used was as follows: Base Reaction buffer; 20 mM Hepes (pH 7.5), 10 mM MgCl2, 1 mM EGTA, 0.01% Brij35, 0.02 mg/ml BSA, 0.1 mM Na3VO4, 2 mM DTT, 1% DMSO. Required cofactors were added individually to each kinase reaction.
(§3) The reaction procedure was as follows: • 1) Substrates were prepared in freshly prepared Reaction Buffer. • 2) Any required cofactors were delivered to the substrate solution above. • 3) Kinase was delivered into the substrate solution and gently mixed. • 4) Compounds were delivered in 100% DMSO into the kinase reaction mixture by Acoustic technology (Echo550; nanoliter range), followed by incubation for 20 min at room temp. • 5) ^33P-ATP was delivered into the reaction mixture to initiate the reaction. • 6) The mixture was incubated for 2 hours at room temperature. • 7) Kinase activity was detected by P81 filter-binding method.
as §1, with “Although not wishing to be limited by theory, it is believed that sometimes” for “(Sometimes”, “activity.” for “activity.)”
(§4) The reagent used was as follows: Base Reaction buffer; 20 mM Hepes (pH 7.5), 10 mM MgCl2, 1 mM EGTA, 0.01% Brij35, 0.02 mg/ml BSA, 0.1 mM Na3 VO4, 2 mM DTT, 1% DMSO.
(§5) Required cofactors were added individually to each kinase reaction.
as §3, with “33P-ATP” for “^33P-ATP”

IRAK1 = IRAK1 (Homo sapiens, UniProt P51617); test: RBC HotSpot kinase inhibition assay, IRAK1
Source text: as §1, §2, §3
as §1, with “Although not wishing to be limited by theory, it is believed that sometimes” for “(Sometimes”, “activity.” for “activity.)”
as §4, §5
as §3, with “33P-ATP” for “^33P-ATP”

IRAK4 = molecular target: T2, IRAK4 (Homo sapiens, UniProt Q9NWZ3); test: RBC HotSpot kinase inhibition assay, IRAK4
T2 sequence (Q9NWZ3 1-460): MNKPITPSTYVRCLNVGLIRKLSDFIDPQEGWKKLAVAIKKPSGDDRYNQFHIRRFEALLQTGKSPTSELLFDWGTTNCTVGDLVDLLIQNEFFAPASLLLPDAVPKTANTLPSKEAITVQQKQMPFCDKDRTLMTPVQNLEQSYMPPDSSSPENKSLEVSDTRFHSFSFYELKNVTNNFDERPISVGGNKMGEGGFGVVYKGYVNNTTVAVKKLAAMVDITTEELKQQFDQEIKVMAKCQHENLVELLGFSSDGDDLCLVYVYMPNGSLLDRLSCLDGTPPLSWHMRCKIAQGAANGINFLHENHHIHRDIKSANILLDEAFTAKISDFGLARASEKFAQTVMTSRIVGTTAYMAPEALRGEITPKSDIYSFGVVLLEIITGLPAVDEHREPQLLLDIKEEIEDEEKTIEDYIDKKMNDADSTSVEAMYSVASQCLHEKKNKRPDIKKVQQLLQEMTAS
Source text: as §1, §2, §3
as §1, with “Although not wishing to be limited by theory, it is believed that sometimes” for “(Sometimes”, “activity.” for “activity.)”
as §4, §5
as §3, with “33P-ATP” for “^33P-ATP”

Chain of IRAK1 (P51617 whole entry): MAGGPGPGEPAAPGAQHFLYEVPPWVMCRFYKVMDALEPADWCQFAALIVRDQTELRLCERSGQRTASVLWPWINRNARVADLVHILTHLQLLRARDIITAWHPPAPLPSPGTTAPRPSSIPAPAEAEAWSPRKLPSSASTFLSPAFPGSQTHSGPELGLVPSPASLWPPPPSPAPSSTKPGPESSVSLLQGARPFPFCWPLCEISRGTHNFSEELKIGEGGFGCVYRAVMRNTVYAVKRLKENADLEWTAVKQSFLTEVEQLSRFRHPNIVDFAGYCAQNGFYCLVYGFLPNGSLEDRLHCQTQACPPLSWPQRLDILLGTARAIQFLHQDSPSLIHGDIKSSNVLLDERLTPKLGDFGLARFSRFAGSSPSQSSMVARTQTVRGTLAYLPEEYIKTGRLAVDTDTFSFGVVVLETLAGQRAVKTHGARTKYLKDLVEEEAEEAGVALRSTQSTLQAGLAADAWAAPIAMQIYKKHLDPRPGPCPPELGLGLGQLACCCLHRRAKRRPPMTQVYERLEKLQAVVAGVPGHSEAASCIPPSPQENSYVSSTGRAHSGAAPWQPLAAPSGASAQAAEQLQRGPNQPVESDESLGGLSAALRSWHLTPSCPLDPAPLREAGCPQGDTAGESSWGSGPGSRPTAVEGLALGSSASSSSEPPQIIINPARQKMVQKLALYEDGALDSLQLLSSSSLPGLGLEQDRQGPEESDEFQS

Row | IC50 (FLT3; Table 11) | IC50 (IRAK1; Table 11) | IC50 (IRAK4; Table 11) | IC50 (FLT3; Table 17) | IC50 (IRAK1; Table 17) | IC50 (IRAK4; Table 17) | SMILES
1 | < 0.5 nM | 4 nM | < 0.5 nM | – | – | – | COc1cn2ncc(-c3nc(N[C@@H]4CCCNC4)ccc3F)c2nc1C1CC1 [Compound 2, (R)-6-(5-cyclopropyl-6-methoxypyrazolo[1,5-a]pyrimidin-3-yl)-5-fluoro-N-(piperidin-3-yl)pyridin-2-amine]
2 | < 0.5 nM | 0.8 nM | < 0.5 nM | – | – | – | COc1cn2ncc(-c3nc(N[C@H]4CNCC[C@@H]4F)ccc3F)c2nc1C1CC1 [Compound 3, 6-(5-cyclopropyl-6-methoxypyrazolo[1,5-a]pyrimidin-3-yl)-5-fluoro-N-((3S,4S)-4-fluoropiperidin-3-yl)pyridin-2-amine]
3 | – | – | – | 0.7 nM | 207 nM | 15 nM | COc1cn2ncc(-c3ccnc(N[C@H]4CNCC[C@@H]4F)n3)c2nc1C(C)(C)O [Compound 3a, 2-(3-(2-(((3S,4S)-4-fluoropiperidin-3-yl)amino)pyrimidin-4-yl)-6-methoxypyrazolo[1,5-a]pyrimidin-5-yl)propan-2-ol]
4 | – | – | – | < 0.5 nM | 4 nM | 2 nM | COc1cn2ncc(-c3nc(N[C@@H]4CCCNC4)ncc3F)c2nc1C(C)(C)O [Compound 4a, (R)-2-(3-(5-fluoro-2-(piperidin-3-ylamino)pyrimidin-4-yl)-6-methoxypyrazolo[1,5-a]pyrimidin-5-yl)propan-2-ol]
5 | < 0.5 nM | 29 nM | 3 nM | – | – | – | COc1cn2ncc(-c3ccc(F)c(N[C@@H]4CCCNC4)n3)c2nc1C1CC1 [Compound 5, (R)-6-(5-cyclopropyl-6-methoxypyrazolo[1,5-a]pyrimidin-3-yl)-3-fluoro-N-(piperidin-3-yl)pyridin-2-amine]
6 | – | – | – | < 0.5 nM | 6 nM | 0.7 nM | COc1cn2ncc(-c3nc(N[C@H]4CNC[C@@H]4F)ncc3F)c2nc1C(C)(C)O [Compound 5a, 2-(3-(5-fluoro-2-(((3S,4S)-4-fluoropyrrolidin-3-yl)amino)pyrimidin-4-yl)-6-methoxypyrazolo[1,5-a]pyrimidin-5-yl)propan-2-ol]
7 | < 0.5 nM | 4 nM | 0.6 nM | – | – | – | COc1cn2ncc(-c3ccc(F)c(N[C@H]4CNCC[C@@H]4F)n3)c2nc1C1CC1 [Compound 6, 6-(5-cyclopropyl-6-methoxypyrazolo[1,5-a]pyrimidin-3-yl)-3-fluoro-N-((3S,4S)-4-fluoropiperidin-3-yl)pyridin-2-amine]
8 | – | – | – | < 0.5 nM | 3 nM | 0.7 nM | COc1cn2ncc(-c3nc(N[C@H]4CNCC[C@@H]4F)ncc3F)c2nc1C(C)(C)O [Compound 6a, 2-(3-(5-fluoro-2-(((3S,4S)-4-fluoropiperidin-3-yl)amino)pyrimidin-4-yl)-6-methoxypyrazolo[1,5-a]pyrimidin-5-yl)propan-2-ol]
9 | < 0.5 nM | < 0.5 nM | < 0.5 nM | – | – | – | COc1cn2ncc(-c3nc(N[C@H]4CNCC[C@@H]4F)c(C#N)cc3F)c2nc1C1CC1 [Compound 7, 6-(5-cyclopropyl-6-methoxypyrazolo[1,5-a]pyrimidin-3-yl)-5-fluoro-2-(((3S,4S)-4-fluoropiperidin-3-yl)amino)nicotinonitrile]
10 | – | – | – | < 0.5 nM | 8 nM | 1 nM | COc1cn2ncc(-c3ccnc(N[C@H]4CNCC[C@@H]4F)n3)c2nc1C1CC1 [Compound 7a, 4-(5-cyclopropyl-6-methoxypyrazolo[1,5-a]pyrimidin-3-yl)-N-((3S,4S)-4-fluoropiperidin-3-yl)pyrimidin-2-amine]
11 | – | – | – | < 0.5 nM | 9 nM | 1 nM | COc1cn2ncc(-c3ccnc(N[C@H]4CNC[C@@H]4F)n3)c2nc1C1CC1 [Compound 8a, 4-(5-cyclopropyl-6-methoxypyrazolo[1,5-a]pyrimidin-3-yl)-N-((3S,4S)-4-fluoropyrrolidin-3-yl)pyrimidin-2-amine]
12 | < 0.5 nM | 3 nM | < 0.5 nM | – | – | – | COc1cn2ncc(-c3nc(N[C@@H]4CCCNC4)c(C#N)cc3F)c2nc1C(C)(C)O [Compound 9, (R)-5-fluoro-6-(5-(2-hydroxypropan-2-yl)-6-methoxypyrazolo[1,5-a]pyrimidin-3-yl)-2-(piperidin-3-ylamino)nicotinonitrile]
13 | < 0.5 nM | 2 nM | < 0.5 nM | – | – | – | COc1cn2ncc(-c3nc(N[C@H]4CNCC[C@@H]4F)c(C#N)cc3F)c2nc1C(C)(C)O [Compound 10, 5-fluoro-2-(((3S,4S)-4-fluoropiperidin-3-yl)amino)-6-(5-(2-hydroxypropan-2-yl)-6-methoxypyrazolo[1,5-a]pyrimidin-3-yl)nicotinonitrile]
14 | < 0.5 nM | 3 nM | 1 nM | – | – | – | COc1cn2ncc(-c3nc(N[C@@H]4CCCNC4)c(F)cc3F)c2nc1C(C)(C)O [Compound 11, (R)-2-(3-(3,5-difluoro-6-(piperidin-3-ylamino)pyridin-2-yl)-6-methoxypyrazolo[1,5-a]pyrimidin-5-yl)propan-2-ol]
15 | – | – | – | < 0.5 nM | 15 nM | 1 nM | COc1cn2ncc(-c3cncc(N[C@@H]4CCCNC4)n3)c2nc1C1CC1 [Compound 11a, (R)-6-(5-cyclopropyl-6-methoxypyrazolo[1,5-a]pyrimidin-3-yl)-N-(piperidin-3-yl)pyrazin-2-amine]
16 | < 0.5 nM | 9 nM | < 0.5 nM | – | – | – | COc1cn2ncc(-c3nc(N[C@H]4CNC[C@@H]4F)c(F)cc3F)c2nc1C(C)(C)O [Compound 12, 2-(3-(3,5-difluoro-6-(((3S,4S)-4-fluoropyrrolidin-3-yl)amino)pyridin-2-yl)-6-methoxypyrazolo[1,5-a]pyrimidin-5-yl)propan-2-ol]
